“And” between values parts separate entries of the source, which are not always exact repeats. Equal values may be shown once. “Also recorded” adds a separate entry of the source. Read-outs that look alike come from different tables or passages of the source.
How the values were obtained:
[1] = system: HCV genotype 1b subgenomic replicon; assay: Anti-HCV activity in the subgenomic replicon model (HCV-SGR RNA by RT-qPCR in Huh7.5-SGR cells); assay type: cell-based, Hepatitis C virus; conditions: for effect on the anti-HCV activity of MK-571: compound added to MK-571 (10 or 50 μM); for effect on the anti-HCV activity of MK-571 / effect on HCV-SGR RNA levels / replication: increasing concentrations; for effect on HCV-SGR RNA levels / replication: compound alone; for effect of MRP-1 inhibitor on MK-571 anti-HCV activity: added to MK-571 (probenecid 1 mM), data not shown
Experimental: Plasmid I389-Neo/NS3-3′/5.1, which contains a neomycin resistance gene and an HCV genotype 1b subgenome, was kindly provided by Ralf Bartenschlager (University of Heidelberg, Heidelberg, Germany). This plasmid was transfected into Huh7.5 cells to generate Huh7.5-SGR cells stably harboring an HCV genotype 1b subgenomic replicon (SGR).
Huh7.5 cells stably harboring an HCV genotype 1b bicistronic replicon (I389-Neo/NS3-3′/5.1) were seeded at the density of 5,000 cells/well in a 96-well plate. The cells were treated for 48 h with the tested compounds diluted in complete DMEM containing 1% dimethyl sulfoxide (DMSO) with 0.5 mg/ml of G418. Total RNA was extracted using the RNeasy 96 kit (Qiagen, Hilden, Germany). HCV-SGR RNA levels were measured by reverse transcriptase quantitative PCR (RT-qPCR) using the TaqMan technology with HCV-specific primers (forward primer, 5′-CGC CCA AAC CAG AAT ACG A-3′; and reverse primer, 5′-AGATAGTACACCCTTTTGCCAGATG-3′) and a qPCR probe (5′-6-carboxyfluorescein [FAM]-CAA TGT GTC AGT CGG-6-carboxytetramethylrhodamine [TAMRA]-0.3′). The data were analyzed with the 2^−ΔΔ^CT method, with all samples normalized to glyceraldehyde-3-phosphate dehydrogenase (GAPDH) mRNA. All experiments were performed in triplicate. HCV-SGR RNA relative quantities were plotted against compound concentrations and fitted with a four-parameter logistic curve with SigmaPlot v11 software. EC50s were determined from the curves.

[2] = Cytotoxicity assay (CellTiter 96 AQueous One); assay type: cell-based; conditions: human
Experimental: Assessment of the compound cytotoxicity was performed with the CellTiter 96 AQueous One assay (Promega), according to the manufacturer’s instructions. Huh7.5 cells were seeded at a density of 5,000 cells/well in a 96-well plate and incubated 24 h before addition of increasing concentrations of the indicated compounds. After 48 h, cells were incubated 4 h in the presence of the CellTiter 96 AQueous One solution reagent, and absorbance was measured at 490 nm.

[3] = system: HCV-J6/JFH1 (genotype 2a/2a full-length infectious model); assay: Antiviral activity in the HCV infectious model (luciferase reporter); assay type: cell-based, Hepatitis C virus; conditions: Huh7.5 cells infected with J6/JFH1, increasing concentrations, 48 h after infection
Experimental: The anti-HCV activity of MK-571 was then confirmed in a chimeric genotype 2a/2a HCV full-length infectious model (HCV-J6/JFH1) containing a luciferase reporter gene. Huh7.5 cells were infected with HCV-J6/JFH1 in the presence of an increasing concentration of MK-571, and luciferase activity was quantified 48 h after infection. […] However, MK-571 anti-HCV activity appeared higher in the genotype 1b HCV-SGR than the genotype 2a HCV full-length infectious model (Fig. 2D).
Huh7.5 cells were incubated 24 h before infection. Then, cells were infected with HCV (J6/JFH1 strain) at an mutiplicity of infection (MOI) of 0.2 during 8 h in the presence of drugs. HCV-infected cells were washed with phosphate-buffered saline (PBS) and incubated for 48 h in fresh medium containing the drugs. Then, luciferase activity was measured and plotted against compound concentrations.

[4] = system: Huh7.5-SGR cells harboring HCV-SGR with neomycin resistance gene; assay type: cell-based, Hepatitis C virus; conditions: 100 μM MK-571, 2 weeks, no G418
Description: FIG 2 Anti-HCV activity of MK-571. (A) Dose-response curve and (B) fold decrease of MK-571 antiviral activity in Huh7.5 cells stably expressing an HCV genotype 1b subgenomic replicon. Data are shown as means ± SD from at least two independent experiments performed in triplicate. […]
We next examined HCV-SGR clearance during 2 weeks of treatment with MK-571. […]

[5] = Huh7.5 cells, 48 h, read-out: CC50 in Huh7.5 cells

| Compound | effect on the anti-HCV activity of MK-571 ([1]; Huh7.5-SGR cells) | effect on HCV-SGR RNA levels / replication ([1]; Huh7.5-SGR cells) | CC50 at 48 h [2, 5] | further results |
| --- | --- | --- | --- | --- |
| CCC(CC)(CC(=O)Nc1cccc(/C=C/c2nc(C3CCC3)cs2)c1)C(=O)O [Cinalukast] | completely reversed its antiviral effect; also recorded: full reversion achieved at the highest dose tested | modest proviral effect on HCV RNA replication | > 100 µM |  |
| CCCCC/C=C\C\C=C/C=C/C=C/[C@@H](SC[C@H](N)C(=O)NCC(=O)O)[C@@H](O)CCCC(=O)O [LTD4] | completely reversed its antiviral effect; also recorded: reversed the antiviral effect of 50 μM of MK-571 in a dose-dependent manner | did not exert any effect on HCV replication |  | concentration achieving complete reversion of the antiviral effect of MK-571 ([1]; in the presence of 50 μM MK-571, Huh7.5-SGR cells): 1 µM |
| CN(C)C(=O)CCSC(SCCC(=O)O)c1cccc(/C=C/c2ccc3ccc(Cl)cc3n2)c1 (stereo not shown) [MK-571] |  |  | > 100 µM | fold decrease of HCV-SGR RNA levels ([1]; 50 μM MK-571 alone, Huh7.5-SGR cells): 12 fold and ~11 fold; fold increase of the anti-HCV effect of telaprevir ([1]; 50 μM MK-571 in combination with 1 μM telaprevir, Huh7.5-SGR cells): approximately 3 fold; antiviral effect compared with telaprevir ([1]; 50 μM MK-571 vs 1 μM telaprevir, Huh7.5-SGR cells): equivalent to the effect of 1 μM of telaprevir; EC50 ([1]; Hepatitis C virus, Huh7.5, 48 h, read-out: EC50 for decrease of HCV-SGR RNA): 9 ± 0.3 µM; maximum HCV RNA level reduction ([1]; Huh7.5-SGR cells, genotype 1b replicon): ~1 log10; effect on HCV-J6/JFH1 replication (luciferase activity) [3]: dose-dependent decrease of HCV-J6/JFH1 RNA replication; also recorded: reduced the replication of the HCV full-length J6/JFH1 model in a dose-dependent manner; cell growth in the absence of G418 [4]: cell growth was not significantly affected |
| CC(C)c1ccc2c(c1)c(SC(C)(C)C)c(CC(C)(C)C(=O)O)n2Cc1ccc(Cl)cc1 [MK-886] |  | None of them affected HCV-SGR replication |  |  |
| O=C(O)c1ccccc1Nc1cccc(OCc2ccc3ccccc3n2)c1 [SR2640] | completely reversed its antiviral effect; also recorded: not only reversed its anti-HCV activity but also increased HCV replication at the highest concentrations tested | increased HCV-SGR RNA levels in a dose-dependent manner | 33.4 ± 3.9 µM | maximum increase of HCV-SGR RNA levels ([1]; SR2640 alone, at 20 μM, Huh7.5-SGR cells): 11 fold |
| CCC[C@H](NC(=O)[C@@H]1[C@H]2CCC[C@H]2CN1C(=O)[C@@H](NC(=O)[C@@H](NC(=O)c1cnccn1)C1CCCCC1)C(C)(C)C)C(=O)C(=O)NC1CC1 [Telaprevir] |  |  |  | CC50 at 48 h [2]: > 20 µM |
| COc1cc(C(=O)NS(=O)(=O)c2ccccc2C)ccc1Cc1cn(C)c2ccc(NC(=O)OC3CCCC3)cc12 [Zafirlukast] | completely reversed its antiviral effect; also recorded: full reversion achieved at the highest dose tested | modest proviral effect on HCV RNA replication | > 100 µM |  |
| CCCN(CCC)S(=O)(=O)c1ccc(C(=O)O)cc1 [probenecid] |  |  |  | effect of MRP-1 inhibitor on MK-571 anti-HCV activity [1]: did not modify its anti-HCV activity; also recorded: lack of effect on MK-571 antiviral activity; effect on HCV-SGR RNA levels ([1]; probenecid 1 mM alone, Huh7.5-SGR cells): had no effect on HCV replication; also recorded: none of these two compounds reduced HCV-SGR RNA levels; also recorded: lack of anti-HCV activity |
| CC(c1cc2ccccc2s1)N(O)C(N)=O (stereo not shown) [zileuton] |  | None of them affected HCV-SGR replication |  |  |
| apigenin homodimer [APN] |  |  |  | effect of MRP-1 inhibitor on MK-571 anti-HCV activity [1]: lack of effect on MK-571 antiviral activity; effect on HCV-SGR RNA levels ([1]; apigenin homodimer 0.1 μM alone, Huh7.5-SGR cells): had no effect on HCV replication; also recorded: none of these two compounds reduced HCV-SGR RNA levels; also recorded: lack of anti-HCV activity |

Source: PMC7269486, “MK-571, a Cysteinyl Leukotriene Receptor 1 Antagonist, Inhibits Hepatitis C Virus Replication” (Antimicrobial Agents and Chemotherapy, 2020)
